Reference: US8143254B2, “Methods for modulating ion channels” (Cornell Research Foundation, Inc., priority 2005, dated 2012)

Biological target: T1, Kv3.4 (UniProt Q63734)
T1 construct: IC50; other: Kv3.4, logistic dose response fit; effect on Kv3.4 currents; other: 1 mM, bath applied; slope of dose response curve; other: Kv3.4
T1 sequence (Q63734 1-625): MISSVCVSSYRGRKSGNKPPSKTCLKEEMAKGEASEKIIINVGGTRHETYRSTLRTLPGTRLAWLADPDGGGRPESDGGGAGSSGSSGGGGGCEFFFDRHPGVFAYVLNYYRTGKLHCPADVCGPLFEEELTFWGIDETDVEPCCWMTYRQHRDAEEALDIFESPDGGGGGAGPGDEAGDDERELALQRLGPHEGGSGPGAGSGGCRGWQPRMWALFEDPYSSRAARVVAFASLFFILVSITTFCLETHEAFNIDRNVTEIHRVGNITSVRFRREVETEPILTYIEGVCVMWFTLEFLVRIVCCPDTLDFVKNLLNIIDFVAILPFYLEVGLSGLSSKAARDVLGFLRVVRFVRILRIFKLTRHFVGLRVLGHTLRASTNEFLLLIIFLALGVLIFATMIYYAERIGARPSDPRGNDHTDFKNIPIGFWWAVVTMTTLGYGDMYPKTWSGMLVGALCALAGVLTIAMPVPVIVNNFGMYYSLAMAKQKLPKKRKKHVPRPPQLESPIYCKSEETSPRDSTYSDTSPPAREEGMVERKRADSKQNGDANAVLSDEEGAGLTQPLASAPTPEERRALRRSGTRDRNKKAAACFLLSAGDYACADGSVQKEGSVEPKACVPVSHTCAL
Assay: TEVC of X. laevis oocytes expressing Kv3.4
Type: cell-based
Conditions: for effect on Kv3.4 currents: 1 mM, bath applied; for slope of dose response curve: Kv3.4; for IC50: Kv3.4, logistic dose response fit
Excerpt: Kv2.1 mutants were constructed using the QuickChange Multi Site-Directed Mutagenesis Kit (Stratagene, La Jolla, Calif.). […] For oocyte expression, Kv3.4 was in pBF1, Kv4.2 was in pRAT. cRNA transcripts were produced from SacII-linearized (Kv2.1), Mlullinearized (Kv3.4) and Not1-linearized (Kv4.2) DNA templates using the T3 (Kv2.1), SP6 (Kv3.4) and T7 (Kv4.2) mMessage mMachine kits (Ambion, Austin, Tex.). cRNA was quantified by spectrophotometry and its size integrity verified by gel electophoresis. Defolliculated stage V and VI Xenopus laevis oocytes (purchased from Nasco, Grand Island, N.Y.) were injected with 5 ng of cRNA encoding Kv2.1, Kv3.4 or Kv4.2. Chinese Hamster Ovary (CHO) cells were transfected with 0.25 μg Kv2.1 cDNA, 2 μg blank plasmid and 2 μg Green fluorescent Protein in pBOB using Supetfect transfection reagent (Qiagen) 24 hours before whole-cell voltage clamp studies.
Oocytes were bathed in a small-volume Warner oocyte bath and viewed with a Fisher dissection microscope. Bath solution for whole-cell oocyte recordings was (in mM): 96 NaCl, 4 KCl, 0.7 MgCl2, 1 CaCl2, 10 HEPES (pH 7.4); whole-cell oocyte TEVC pipettes were of 0.2-2 M resistance when filled with 3 M KCl. Experiments were performed 24-48 hours after cRNA injection. For assessment of current-voltage relationships in the absence or presence of dabco derivatives, oocytes were held at −80 mV, stepped for 2 seconds at voltages between −80 mV and +60 mV in 20 mV steps (Kv2.1) or between −80 and +50 mV in 10 mV steps (Kv3.4), then held for 500 ms at −40 mV before returning to the holding potential. For assessment of block during wash-in of dabco derivatives at a single voltage, oocytes were held at −80 mV, and repetitively stepped to 0 mV for 2 s with an interpulse interval of 10 s or 60 s as indicated. A range of concentrations of dabco or dabco derivatives were washed in via the bath solution during repetitive single-voltage pulses (after an initial period of 5 pulses with control solution to ensure current stabilization) until equilibrium block was achieved, to establish dose-responses. […] Washout was performed after the highest concentration of blocker was washed in. In cases where washout was achieved, only those recordings in which current returned to within 10% of original current level were used for construction of dose-response curves. […] As controls for this protection analysis, JC638.2a or MTSET were washed in alone until equilibrium block, then washed out.
Data analysis: Current-voltage relationships were obtained by measuring peak current during depolarizing pulses. Inhibition constants for DABCO blockers were calculated after generating a dose response curve by fitting with a logistic dose-response function y=A2+[A1−A2/1+(x/x0)^p], where A1 is the maximum response plateau, A2 is the minimum response plateau, x is drug concentrator, x0 is the IC50, and p the Hill slope. Data analysis was performed using […] 9 (Axon Instruments, Foster City, Calif.) and tabulated in Excel 5.0. Graphs were generated using Origin 6.1. Data are expressed as mean±SEM, with n specifying the number of independent experiments. Statistical significance was assessed by one-way ANOVA with p<0.05 being indicative of significance.

SMILES	effect on Kv3.4 currents	slope of dose response curve	IC50 [µM]
c1cc(C[N+]23CCN(CC2)CC3)ccc1C[N+]12CCN(CC1)CC2 [JC638.2α, α,α′-[bis(4-aza-1-azoniabicyclo[2.2.2]octanyl)]p-xylene]	significant inhibition	1.3±0.2	129 ± 20.7
CCCCCCCCCCCC[N+]12CCN(CC1)CC2 [JE188, 1-aza-4-azonia-4-dodecylbicyclo[2.2.2]octane]		0.7±0.1	34.2 ± 10
CCCCCCCCCCCCCCCC[N+]12CCN(CC1)CC2 [TA279, 1-aza-4-azonia-4-hexadecylbicyclo[2.2.2]octane]		2.8±1.1	0.6 ± 0.1
C(CC[N+]12CCN(CC1)CC2)C[N+]12CCN(CC1)CC2 [TG26]	less effective than TG27		
